Substitutions are numbered along the chain they refer to. Where two headings read alike, the source gives them in different places.
Assays:
[1] = target: T1, GPX4^U46C (Homo sapiens, UniProt P36969, U73C); test: Protein crystallography of inhibitor complexes
T1 construct: made in house; host or cells: E. coli BL21-Gold (DE3)
T1 sequence (P36969 1-170 isoform P36969-2 U46C): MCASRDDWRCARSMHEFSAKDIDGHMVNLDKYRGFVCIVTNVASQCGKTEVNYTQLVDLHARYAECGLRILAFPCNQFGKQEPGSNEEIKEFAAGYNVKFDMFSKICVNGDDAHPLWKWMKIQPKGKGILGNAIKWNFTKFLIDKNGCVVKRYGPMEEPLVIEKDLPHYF
Description: GPX4^U46C was pre-incubated with covalent inhibitors before crystallization using conditions that were optimized with monitoring on intact protein MALDI MS analysis. 40 μM GPX4^U46C was incubated with 375 μM LOC1886 in the reaction buffer (20 mM Tris pH 9.0, 100 mM NaCl, 2 mM TCEP, 1.5% DMSO) at 37° C. for 4 hours and then 4° C. overnight. Covalent binding was confirmed using intact protein MALDI MS analysis. The protein-inhibitor complex was then exchanged into crystallization buffer (20 mM Tris, pH 8.0, 300 mM NaCl, 3 mM TCEP) and concentrated to 5 mg/mL.
Protein samples of GPX4^U46C in complex with LOC1886 were initially screened at the High-Throughput Crystallization Screening Center of the Hauptman-Woodward Medical Research Institute (HWI) (hwi.buffalo.edu/high-throughput-crystallization-center/) (Luft et al. 2003). The most promising crystal hits were reproduced using under oil micro batch method at 23° C. […]
GPX4^U46C with LOC1886 diffracted X-ray at the beamline NE-CAT24-ID-C to resolution 1.93 Å. […] The structure of each protein was determined by molecular replacement method using MOLREP program and the crystal structures of GPX4^U46C (PDB id: 7L8K) and GPX4^U46C-R152H (PDB id: 7L8L) were both used as search models for structure determination (Vagin and Teplyakov, 2010). […]

[2] = in vitro; conditions: mouse, plasma
[3] = in vitro; conditions: human, plasma
[4] = in vitro; assay type: in vitro ADME, mouse; conditions: mouse, microsomes
Description: (§1) […]. The incubation timepoints measured were 0, 5, 10, 15, 30, and 45 minutes. All samples were prepared in duplicate and analyzed by LC-MS/MS.

[5] = target: T2, GPX4 (Homo sapiens, UniProt P36969); test: Western blot assay of GPX4 protein degradation; assay type: cell-based
T2 sequence (P36969 1-170 isoform P36969-2): T1 sequence (P36969 1-170 isoform P36969-2 U46C) with C46U
Description: HT-1080 cells were seeded at 250,000 cells per well in a 6-well plate and incubated 37° C. with 5% CO2 overnight. The next day, cells were treated with vehicle alone or the compound of interest with 10 μM Fer-1 for 10 hours. Compounds were dissolved in DMSO. Cells were harvested with trypsin, washed with cold PBS, and lysed in RIPA buffer containing complete Protease Inhibitor Cocktail mini tablets (Roche) on ice for 30 minutes. Samples were then centrifuged at 14,000×g for 15 minutes at 4° C. Supernatants were collected and protein concentrations were determined using the BCA Protein Assay Kit (Pierce). Concentrations were normalized across samples and mixed with 6×SDS-PAGE Sample Loading Buffer (G Biosciences). Protein samples were then loaded on a NuPAGE Novex 4-12% Bis-Tris protein gel and run in MES buffer (Invitrogen) at 100V for 10 minutes then 200V for an additional 30 minutes. Proteins were transferred to a PVDF membrane (Invitrogen) using the iBlot 2 Gel Transfer Device. The membrane was washed with PBS, then blocked using Intercept Blocking Buffer (LICOR) for one hour. The membrane was then incubated with the primary antibodies in a 1:1 solution of blocking buffer and PBST (PBS+0.1% Tween 20) overnight at 4° C. […] The blot was imaged using a LI-COR Odyssey CLx IR scanner and results were quantified in ImageJ and GraphPad Prism 9.

[6] = in vitro; assay type: in vitro ADME, human; conditions: human, microsomes
Description: as §1

[7] = test system: SU-DHL-5; test: Cytotoxicity in DLBCL cells, SU-DHL-5; assay type: cell-based, human; conditions: for IC50: SU-DHL-5
[8] = test system: U-2932; test: Cytotoxicity in DLBCL cells, U-2932; assay type: cell-based, human; conditions: for IC50: U-2932
[9] = test system: SU-DHL-7; test: Cytotoxicity in DLBCL cells, SU-DHL-7; assay type: cell-based, human; conditions: for IC50: SU-DHL-7
[10] = test system: SU-DHL-2; test: Cytotoxicity in DLBCL cells, SU-DHL-2; assay type: cell-based, human; conditions: for IC50: SU-DHL-2
[11] = not given; remark: listed apart in the source
[12] = Fer-1 1.0 μM, read-out: IC50 (μM) with Fer-1

With `Cn1nc(C(=O)NC(C)(C)COC(=O)CCl)c2ccc(Br)cc21` [QW-314] the “binding site in co-crystal structure” value [1] was “covalently binds to the mutant cysteine in the U46 residue”, the half-life [2] was 40.7 min and the half-life [3] was 2.3 min. For the same molecule, the half-life at 1 μM ([4]; pH 7.4) was 5.3 min, the “GPX4 protein degradation, result in words” value [5] was “induces GPX4 protein degradation in HT-1080 cells” and the half-life at 1 μM ([6]; pH 7.4) was 6 min.

With `CC(C)(COC(=O)CCl)NC(=O)c1nn(Cc2cc(Cl)cc(Cl)c2)c2cc(-c3ccc(N4CCOCC4)c(Cl)c3)ccc12` [QW-852] the “Selectivity^a (fold)” value [7] was over 1000 fold, the IC50 [7, 12] was 1.58 µM and the “Selectivity^a (fold)” value [8] was 6 fold. The IC50 ([8]; 24 h, read-out: IC50) was 1.37 µM, the IC50 [8, 12] was 7.9 µM and the “Selectivity^a (fold)” value [9] was over 1000 fold. The IC50 ([9]; 24 h, read-out: IC50) was 0.031 µM, the IC50 [9, 12] was over 1000 µM and the “Selectivity^a (fold)” value [10] was over 1000 fold. It also gave an IC50 ([10]; 24 h, read-out: IC50) of 0.002 µM and an IC50 [10, 12] of 4.95 µM.

In the case of `CC(C)(COC(=O)CCl)NC(=O)c1cc2ccc(Br)cc2[nH]1` [QW-156], the “Microsome Stability t1/2 (min) mouse” value [4] is reported as over 1000 min and the “Microsome Stability t1/2 (min) human” value [6] is reported as over 1000 min.

With `COc1ccc2cc(C(=O)NC(C)(C)COC(=O)CCl)[nH]c2c1` [QW-152] the “Microsome Stability t1/2 (min) mouse” value [4] was 0.9 min and the “Microsome Stability t1/2 (min) human” value [6] was 1.5 min.

For `COc1ccc(-c2ccc3c(C(=O)NC(C)(C)COC(=O)CCl)nn(C)c3c2)cc1Cl` [QW-446], the “Plasma Stability t1/2 (min) human” value was 7.5 min, the “Microsome Stability t1/2 (min) mouse” value [4] was 1.2 min and the “Plasma Stability t1/2 (min) mouse” value [11] was 24.0 min. For the same molecule, the “Microsome Stability t1/2 (min) human” value [6] was 1.6 min.

With `COc1cccc2[nH]c(C(=O)n3ccnc3)cc12` [LOC1886, reference compound] the “binding site in co-crystal structure” value [1] was “bound to allosteric sites C66 and C10 of GPX4^U46C”, the half-life [2] was under 2 min and the half-life [3] was 10.8 min. The “GPX4 protein degradation, result in words” value ([5]; HT-1080 cells) was “inhibits and degrades GPX4”.

For `COC(=O)c1ccc([C@@H]2c3[nH]c4ccccc4c3C[C@@H](C(=O)OC)N2C(=O)CCl)cc1` [RSL3, reference compound], the “Selectivity^a (fold)” value [7] was 5 fold, the IC50 ([7]; 24 h, read-out: IC50) was 0.4 µM and the IC50 [7, 12] was 2.15 µM. For the same molecule, the “Plasma Stability t1/2 (min) human” value was over 1000 min, the “Microsome Stability t1/2 (min) mouse” value [4] was 2.4 min and the “Plasma Stability t1/2 (min) mouse” value [11] was 5.2 min. For the same molecule, the “Selectivity^a (fold)” value [8] was over 1000 fold, the IC50 ([8]; 24 h, read-out: IC50) was 0.16 µM and the IC50 [8, 12] was 316 µM. The “Microsome Stability t1/2 (min) human” value [6] was 14 min, the “Selectivity^a (fold)” value [9] was 6 fold and the IC50 ([9]; 24 h, read-out: IC50) was 0.17 µM. For the same molecule, the IC50 [9, 12] was 1 µM, the “Selectivity^a (fold)” value [10] was 8 fold and the IC50 ([10]; 24 h, read-out: IC50) was 0.18 µM. For the same molecule, the IC50 [10, 12] was 1.5 µM.
